Drawing on patent US20220339260A1, “METHOD FOR PRODUCING INSULIN-PRODUCING CELL USING DIHYDROINDOLIZINONE DERIVATIVES” (TOKYO INSTITUTE OF TECHNOLOGY, priority 2019, published 2022), this text covers Activity for 56 molecules.

This test deals with human iPS cell Toe strain. Put plainly: Effect to promote differentiation from human iPS cells into insulin-producing cells (insulin-positive cell rate, Reference Example 1). The note with it: activity intensity: sum of activity values (increment in insulin-positive cell rate) at 2 μM and 10 μM compared with positive control (compound of Synthesis Example 1). The arrangement: key to Activity: the sum of activity values at the two concentrations was obviously higher than the control untreated with compounds while being lower than the positive control was expressed as +; the sum was equivalent to the positive control was expressed as ++; the sum was higher than the positive control was expressed as +++. It counts as cell-based. The source says:
The evaluation system of the effect (efficacy) to promote differentiation from human iPS cells into insulin-producing cells was constructed with reference to known information (Non Patent Document 6). Further, the medium used in each differentiation stage was also produced with reference to known information (differentiation media A to E (Media A to E) described in Non Patent Document 6 were used respectively for stages 1 to 5; however, a medium free from GLP-1 receptor agonist and nicotinamide was used as differentiation medium E).
In order to evaluate the efficacy of each compound, the compound of Synthesis Example 1 was used as a positive control, and dimethylsulfoxide (DMSO) (SIGMA, D2650) with a final concentration of 0.1% was used as a control untreated with compounds. Each compound was dissolved in DMSO, and two types of compound solutions were prepared so as to have final concentrations of 2 μM and 10 μM after the compound was added to the medium. In the following evaluation, the compound solutions were added to the medium to 0.1% that is the final concentration of DMSO.
First, induction from human iPS cell Toe strain (National Institutes of Biomedical Innovation, Health and Nutrition) into cells on day 7 of culture (2 days after replacement with differentiation medium C (cells in the differentiation process from FOXA2-positive primitive gut tube cells into PDX1-positive pancreatic progenitor cells)) was performed according to the method of Non Patent Document 6 for “inducing differentiation from human iPS cells into pancreatic β cells”, and the cells were collected and thereafter stored in liquid nitrogen using Bambanker (NIPPON Genetics Co, Ltd.) at 1×10^7 cells/mL/tube, to produce a cell stock for evaluation. The cell stock was dissolved at the start of the evaluation of efficacy, suspended in differentiation medium C for stage 3 (DMEM high glucose (Life technologies, 11965092), 0.25 μM SANT-1, 0.1 μM LDN193189 (Stemgent, 04-0074), 10 μM SB431542, 2 μM Retinoic acid (Stemgent, 04-0021), 1% B27 serum free supplement (Life technologies, 17504044) and thereafter seeded in a 96-well plate (Corning, #3340) coated with Synthemax II (Corning, #5656) at 1×10^5 cells/well. After culturing for 2 days, the medium was removed, and new differentiation medium C for stage 3 with the compound or only DMSO added was added thereto at 100 μL/well. After culturing for 2 days, the medium was removed, and new differentiation medium D for stage 4 (DMEM high glucose, 0.1 μM LDN193189, 5 μM TGF-β type I receptor kinase inhibitor II (Calbiochem 616452), 0.3 μM (−)-indolactam V (Enzo life science ALX-420-011-C300), 1% B27 serum free supplement) with the compound or only DMSO added was added thereto at 100 μL/well. After culturing for 2 to 3 days, the medium was removed, and new differentiation medium E for stage 5 (GLP-1 receptor agonist and nicotinamide-free; Knockout […] (Life technologies, 12660012), 1% B27 serum free supplement) with the compound or only DMSO added was added thereto at 200 μL/well. After culturing for 2 days, the medium was removed, and a 4% paraformaldehyde phosphorus acid buffer (Wako, 163-20145) was added thereto at 150 μL/well and left standing for 30 to 60 minutes at room temperature to fix the cells. A phosphorus acid buffer (PBS) (Takara, T9181) containing 1% Triton X-100 (Sigma, T8787) was left standing for 15 minutes at room temperature, then washed with PBS-T (Takara, T9183), and was blocked for 1 hour using 20% Blocking One (Nacalai tesque, Tokyo, Japan) diluted with PBS-T at room temperature. After the removal of Blocking One, guinea pig anti-insulin antibody (Abcam, ab7842) diluted 200-fold with 20% Blocking One was added thereto at 50 μL/well, followed by standing at 4° C. overnight. […]

Take `O=C1CCC(C(=O)Nc2ncc(-c3ccccc3)s2)n2cccc21` (centres unmarked) [Example 1]: the Activity entry was “++”.
As for `COC(=O)c1ccc(-c2cnc(NC(=O)C3CCC(=O)c4cccn43)s2)cc1` (centres unmarked) [Example 2], the entry is “++”; as for `CN(C)C(=O)c1ccc(-c2cnc(NC(=O)C3CCC(=O)c4cccn43)s2)cc1` (centres unmarked) [Example 3], “+”.
With `O=C1CCC(C(=O)Nc2ncc(-c3ccc4c(c3)OCO4)s2)n2cccc21` (centres unmarked) [Example 4] the entry was “++”; with `O=C(O)c1ccc(-c2cnc(NC(=O)C3CCC(=O)c4cccn43)s2)cc1` (centres unmarked) [Example 5], “+”.
As to `NC(=O)c1ccc(-c2cnc(NC(=O)C3CCC(=O)c4cccn43)s2)cc1` (centres unmarked) [Example 6], the Activity result is recorded as “+”.
Take `N#Cc1ccc(-c2cnc(NC(=O)C3CCC(=O)c4cccn43)s2)cc1` (centres unmarked) [Example 7]: the Activity result is given as “+”.
For the molecule `CN(C)C(=O)COc1ccc(-c2cnc(NC(=O)C3CCC(=O)c4cccn43)s2)cc1` (centres unmarked) [Example 8], the Activity result is “++”.
`O=C1CCC(C(=O)Nc2ncc(-c3ccc(OC(F)(F)F)cc3)s2)n2cccc21` (centres unmarked) [Example 9]: the Activity entry is listed as “+++”.
Turning to `CC(C)(C)Oc1ccc(-c2cnc(NC(=O)C3CCC(=O)c4cccn43)s2)cc1` (centres unmarked) [Example 11], the Activity result is “+++”.
With `O=C1CCC(C(=O)Nc2ncc(-c3ccc(Cl)cc3)s2)n2cccc21` (centres unmarked) [Example 12], the Activity entry is “++”.
Take `O=C1CCC(C(=O)Nc2ncc(-c3cccc(Cl)c3)s2)n2cccc21` (centres unmarked) [Example 13]: the Activity result is recorded as “++”.
As to `O=C1CCC(C(=O)Nc2ncc(-c3ccccc3Cl)s2)n2cccc21` (centres unmarked) [Example 14], the Activity result is listed as “+”.
As for `O=C1CCC(C(=O)Nc2ncc(-c3cccc(F)c3)s2)n2cccc21` (centres unmarked) [Example 15], the entry is “+”.
With `O=C1CCC(C(=O)Nc2ncc(-c3ccc(F)cc3)s2)n2cccc21` (centres unmarked) [Example 16], the Activity result is “++”.
For the molecule `O=C1CCC(C(=O)Nc2ncc(-c3ccccc3F)s2)n2cccc21` (centres unmarked) [Example 17], the Activity result was “++”.
With `Cc1ccc(-c2cnc(NC(=O)C3CCC(=O)c4cccn43)s2)cc1` (centres unmarked) [Example 18], the Activity entry is recorded as “++”.
For `Cc1ccccc1-c1cnc(NC(=O)C2CCC(=O)c3cccn32)s1` (centres unmarked) [Example 19], the Activity entry is listed as “++”.
As for `Cc1cccc(-c2cnc(NC(=O)C3CCC(=O)c4cccn43)s2)c1` (centres unmarked) [Example 20], the entry is “++”; as for `O=C1CCC(C(=O)Nc2ncc(-c3ccc(C(F)(F)F)cc3)s2)n2cccc21` (centres unmarked) [Example 21], “+++”; as for `COc1ccccc1-c1ccc(-c2cnc(NC(=O)C3CCC(=O)c4cccn43)s2)cc1` (centres unmarked) [Example 22], “+++”.
As to `Cc1ccc(-c2ccc(-c3cnc(NC(=O)C4CCC(=O)c5cccn54)s3)cc2)cc1` (centres unmarked) [Example 23], the Activity entry is reported as “+”.
For the molecule `O=C1CCC(C(=O)Nc2ncc(-c3ccc4ccccc4c3)s2)n2cccc21` (centres unmarked) [Example 24], the Activity result is on record as “+”.
Turning to `O=C1CCC(C(=O)Nc2ncc(-c3cccc(OC(F)(F)F)c3)s2)n2cccc21` (centres unmarked) [Example 25], the Activity result was “+++”.
Take `COc1ccc(-c2cnc(NC(=O)C3CCC(=O)c4cccn43)s2)cc1` (centres unmarked) [Example 26]: the Activity result was “++”.
Consider `COc1cccc(-c2cnc(NC(=O)C3CCC(=O)c4cccn43)s2)c1` (centres unmarked) [Example 27], for which the Activity entry was “++”.
As for `Cc1cc(OC(F)(F)F)ccc1-c1cnc(NC(=O)C2CCC(=O)c3cccn32)s1` (centres unmarked) [Example 28], the entry is “+++”; as for `Cc1cc(-c2cnc(NC(=O)C3CCC(=O)c4cccn43)s2)ccc1OC(F)(F)F` (centres unmarked) [Example 29], “+++”; as for `O=C1CCC(C(=O)Nc2ncc(-c3ccc(OC(F)(F)F)c(Cl)c3)s2)n2cccc21` (centres unmarked) [Example 30], “+++”.
As to `O=C1CCC(C(=O)Nc2ncc(-c3ccc(OC(F)(F)F)c(CO)c3)s2)n2cccc21` (centres unmarked) [Example 31], the Activity entry is “+”.
As for `O=C1CCC(C(=O)Nc2ncc(-c3ccc(OCc4ccccc4)cc3)s2)n2cccc21` (centres unmarked) [Example 32], the Activity result is listed as “+++”.
In the case of `CC(C)Oc1ccc(-c2cnc(NC(=O)C3CCC(=O)c4cccn43)s2)cc1` (centres unmarked) [Example 33], the Activity result was “+++”.
As to `Cc1nc(NC(=O)C2CCC(=O)c3cccn32)sc1-c1ccccc1` (centres unmarked) [Example 34], the Activity result is “++”.
Consider `Cc1nc(NC(=O)C2CCC(=O)c3cccn32)sc1-c1ccc(OC(C)(C)C)cc1` (centres unmarked) [Example 35], for which the Activity entry was “+++”.
In the case of `Cc1nc(NC(=O)C2CCC(=O)c3cccn32)sc1-c1ccc(OC(F)(F)F)cc1` (centres unmarked) [Example 36], the Activity entry is on record as “+++”.
Regarding `O=C1CCC(C(=O)Nc2ncc(-c3ccc(CO)cc3)s2)n2cccc21` (centres unmarked) [Example 37], the Activity entry is “+”.
As for `COCCOc1ccc(-c2cnc(NC(=O)C3CCC(=O)c4cccn43)s2)cc1` (centres unmarked) [Example 38], the Activity result is listed as “+++”.
Take `O=C1CCC(C(=O)Nc2ncc(-c3ccc(OC(F)F)cc3)s2)n2cccc21` (centres unmarked) [Example 39]: the Activity result is “+++”.
For the molecule `O=C1CCC(C(=O)Nc2ncc(-c3ccc4c(c3)OC(F)(F)O4)s2)n2cccc21` (centres unmarked) [Example 40], the Activity entry is recorded as “+++”.
`O=C1CCC(C(=O)Nc2ncc(-c3ccc(N4CCOCC4)cc3)s2)n2cccc21` (centres unmarked) [Example 41]: the Activity entry was “+”.
As for `CN(C)S(=O)(=O)c1ccc(-c2cnc(NC(=O)C3CCC(=O)c4cccn43)s2)cc1` (centres unmarked) [Example 42], the entry is “+”.
Turning to `O=C1CCC(C(=O)Nc2ncc(-c3ccc(OCc4ccccc4)c(F)c3)s2)n2cccc21` (centres unmarked) [Example 43], the Activity result was “+++”.
Turning to `O=C1CCC(C(=O)Nc2ncc(-c3ccc(OCc4ccccc4)cc3F)s2)n2cccc21` (centres unmarked) [Example 44], the Activity entry is “+”.
With `O=C1CCC(C(=O)Nc2ncc(-c3ccc(OCC(F)(F)F)cc3)s2)n2cccc21` (centres unmarked) [Example 45] the entry was “+++”.
On to `O=C1CCC(C(=O)Nc2ncc(-c3ccc(Oc4ccccc4)cc3)s2)n2cccc21` (centres unmarked) [Example 46], for which the Activity entry is on record as “+++”.
With `O=C1CCC(C(=O)Nc2ncc(-c3ccc(Br)cc3)s2)n2cccc21` (centres unmarked) [Example 47] the entry was “++”.
Regarding `CC(C)(C)OC(=O)Oc1ccc(-c2cnc(NC(=O)C3CCC(=O)c4cccn43)s2)cc1` (centres unmarked) [Example 48], the Activity entry is “+”.
As to `CC(C)COc1ccc(-c2cnc(NC(=O)C3CCC(=O)c4cccn43)s2)cc1` (centres unmarked) [Example 49], the Activity entry was “+++”.
Turning to `O=C1CCC(C(=O)Nc2ncc(C3=CCCCC3)s2)n2cccc21` (centres unmarked) [Example 50], the Activity entry was “+”.
As for `CC(C)(C)OC(=O)N1CC=C(c2cnc(NC(=O)C3CCC(=O)c4cccn43)s2)CC1` (centres unmarked) [Example 51], the entry is “+++”.
Turning to `CC(C)COc1ncc(-c2cnc(NC(=O)C3CCC(=O)c4cccn43)s2)cc1Cl` (centres unmarked) [Example 52], the Activity result is on record as “+++”.
On to `CC(C)(C)OC(=O)N1CC=C(c2cnc(NC(=O)C3CCC(=O)c4cccn43)s2)C1` (centres unmarked) [Example 53], for which the Activity result is recorded as “++”.
Take `Cc1ccc(-c2cnc(NC(=O)C3CCC(=O)c4cccn43)s2)o1` (centres unmarked) [Example 54]: the Activity result was “+”.
For `Cc1nc(C)c(-c2cnc(NC(=O)C3CCC(=O)c4cccn43)s2)s1` (centres unmarked) [Example 55], the Activity result is on record as “+”.
For `O=C1CCC(C(=O)Nc2ncc(-c3ccc(Cl)s3)s2)n2cccc21` (centres unmarked) [Example 56], the Activity entry is “++”.
With `CC(=O)c1ccc(-c2cnc(NC(=O)C3CCC(=O)c4cccn43)s2)cc1` (centres unmarked) [Example 57], the Activity result was “+”.
